Assay results reported in PMC5349656, “Characterization of Hedgehog Acyltransferase Inhibitors Identifies a Small Molecule Probe for Hedgehog Signaling by Cancer Cells” (ACS Chemical Biology, 2016).

Columns and labels:
[1] = target: T1, Hedgehog acyltransferase (Hhat) (Homo sapiens, UniProt Q5VTY9); experiment: YnPal palmitoylation profiling in cells by quantitative proteomics; format: cell-based
[2] = target: T1, Hedgehog acyltransferase (Hhat); experiment: YnPal palmitoylation tagging in HEK-293 Shh+ cells, spike-in SILAC quantitative proteomics (Western blot TC50 […]); format: cell-based

T1 sequence (Q5VTY9 whole entry): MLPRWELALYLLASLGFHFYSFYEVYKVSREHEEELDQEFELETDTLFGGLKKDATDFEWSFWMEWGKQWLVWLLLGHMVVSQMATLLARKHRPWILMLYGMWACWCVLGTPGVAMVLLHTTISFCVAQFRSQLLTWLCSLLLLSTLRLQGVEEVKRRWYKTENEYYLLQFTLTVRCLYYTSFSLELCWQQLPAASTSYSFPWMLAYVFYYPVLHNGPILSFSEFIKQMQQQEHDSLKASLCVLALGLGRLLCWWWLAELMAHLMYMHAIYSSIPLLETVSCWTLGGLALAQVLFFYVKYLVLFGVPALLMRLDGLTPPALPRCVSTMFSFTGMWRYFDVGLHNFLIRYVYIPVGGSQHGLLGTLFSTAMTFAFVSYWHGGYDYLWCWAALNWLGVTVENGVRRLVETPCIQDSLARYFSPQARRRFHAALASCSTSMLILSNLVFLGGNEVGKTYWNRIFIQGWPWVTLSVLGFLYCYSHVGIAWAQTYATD

Row | Structure (SMILES) | YnPal palmitoylation profiling in cells by quantitative proteomics [1] | IC50 [2] [nM]
1 | C=CCNCC(=O)N1CCc2sccc2C1COc1ccc(Cl)cc1 (centres unmarked) [RUSKI-41] | RUSKI-41 also inhibited only Hh palmitoylation (Supporting Information Figure S6, Table S2) | 
2 | CCC(C)CNCC(=O)N1CCc2sccc2C1c1cccc(C)n1 (racemic) [RUSKI-201] |  | 730 ± 90
